Measurements as given in patent publication US20240294478A1, “ANTI-CANCER COMPOUNDS AND METHODS OF USE” (YALE UNIVERSITY, priority 2021, published 2024).

Assays:
[1] = test system: linearized pUC19 plasmid DNA; assay: Melting temperature assay; assay type: biochemical; conditions: 100 or 500 μM for 3 h
Protocol: Columns, mean; error bars, SD; n=2 independent analyses. For (A) and (C), points, mean; error bars, SD; n=3 technical replicates.
Melting Temperature Assay. Linearized pUC19 DNA (750 ng), prepared as described above, was incubated with the indicated concentration of either MMS or KL-50 adjusted in a final volume of 18 μL in 100 mM Tris buffer (pH 7.4) for 3 h. Drug stock concentrations were made in DMSO such that each reaction contained a fixed 5% DMSO concentration. Afterwards, 1 μL each of 20×SYBR Green dye (Invitrogen) and 20×ROX reference dye (Invitrogen) was added and melting temperature analysis was run on a StepOnePlus RT PCR System (Applied Biosciences) to generate melting temperature curves.

[2] = test system: PD20 cells, deficient in FANCD2 (FANCD2−/−) or complemented with FANCD2; assay: Short-term viability assay, PD20 cells; assay type: cell-based, human; conditions: PD20 FANCD2−/− vs +FANCD2
Protocol: (§1) FIGS. 8A-8K. (FIG. 8A) Change in percent cells with 1 micronuclei from baseline (DMSO control) after treatment as in FIGS. 5A and 5C. […] (FIG. 8B) Short-term viability assay curves for KL-50 in PD20 cells, deficient in FANCD2 (FANCD2−/−) or complemented with FANCD2 (+FANCD2). (FIG. 8C) Short-term viability assay curves for KL-50 in PEO4 (BRCA2+) and PEO1 (BRCA2−/−) cells pre-treated with 0.01% DMSO control or 10 μM O^6BG (+O^6BG) for 1 h prior to KL-50 addition. (FIG. 8D) Short-term viability assay curves for KL-50 in DLD1 BRCA2+/− and BRCA2−/−cells pre-treated with 0.01% DMSO control or 10 μM O^6BG (+O^6BG) for 1 h prior to KL-50 addition. For FIGS. 8B-8D, points, mean; error bars, SD; n=3 technical replicates. […] Change in percent cells with 1 micronuclei from baseline (DMSO control) after treatment with olaparib (10 μM) for 48 h in LN229 MGMT+/−, MMR+/−cells. […] Western blot analysis of FANCD2 ubiquitination in LN229 MGMT+/−, MMR+/−cells and PD20 FANCD2-deficient cells, complemented with empty vector (FANCD2+EV), wildtype FANCD2 (PD20+FD2) or ubiquitination-mutant FANCD2 (PD20+KR). The % FANCD2 ubiquitination (% FANCD2 Ub) is quantified as the background-corrected integrated band intensity of the upper band divided by the sum of the background-corrected integrated band intensities of the upper and lower bands. The fold change in % FANCD2 ubiquitination is presented for each cell line relative to DMSO-treated cells. Vinculin serves as loading control. For 8J-8K, points, mean; error bars, SD; n=3 technical replicates.
(§2) Short-term Cell Viability Assay. Cells were seeded in 96-well plates at 1000 or 2000 cells/well and allowed to adhere at 23° C. for 60 min and then incubated overnight at 37° C. […] Cells were imaged on a Cytation 3 imaging reader (BioTek) and quantified using CellProfiler software. For in vitro short-term growth delay experiments, IC50 values were determined from the nonlinear regression equation, [inhibitor] vs normalized response with variable slope.

[3] = test system: PEO4 (BRCA2+) and PEO1 (BRCA2−/−) cells; assay: Short-term viability assay, PEO1/PEO4 model +/- O6BG; assay type: cell-based, human; conditions: PE01/4 model
Protocol: FIGS. 8A-8K. (FIG. 8A) Change in percent cells with 1 micronuclei from baseline (DMSO control) after treatment as in FIGS. 5A and 5C. […] (FIG. 8B) Short-term viability assay curves for KL-50 in PD20 cells, deficient in FANCD2 (FANCD2−/−) or complemented with FANCD2 (+FANCD2). (FIG. 8C) Short-term viability assay curves for KL-50 in PEO4 (BRCA2+) and PEO1 (BRCA2−/−) cells pre-treated with 0.01% DMSO control or 10 μM O^6BG (+O^6BG) for 1 h prior to KL-50 addition. (FIG. 8D) Short-term viability assay curves for KL-50 in DLD1 BRCA2+/− and BRCA2−/−cells pre-treated with 0.01% DMSO control or 10 μM O^6BG (+O^6BG) for 1 h prior to KL-50 addition. For FIGS. 8B-8D, points, mean; error bars, SD; n=3 technical replicates. […] The % FANCD2 ubiquitination (% FANCD2 Ub) is quantified as the background-corrected integrated band intensity of the upper band divided by the sum of the background-corrected integrated band intensities of the upper and lower bands. […]
as §2, with “Assay.” for “Assay. Cells were seeded in 96-well plates at 1000 or 2000 cells/well and allowed to adhere at 23° C. for 60 min and then incubated overnight at 37° C.”

[4] = test system: DLD1 BRCA2+/− and BRCA2−/− cells; assay: Short-term viability assay, DLD1 BRCA2 isogenic model +/- O6BG; assay type: cell-based, human; conditions: DLD1 isogenic model
Protocol: as §1, §2

Row | Structure (SMILES) | change in DNA melting temperature [1] | sensitivity of FANCD2-deficient cells [2] | therapeutic index (TI) [3] [fold] | therapeutic index (TI), ratio of IC50 values in MGMT+/BRCA2+ cells compared to MGMT−/BRCA2− cells [4] [fold]
1 | COS(C)(=O)=O [MMS, Methylmethane sulfonate, reference compound] | comparable changes in measured DNA melting temperature |  |  | 
2 | N.N.[Cl][Pt][Cl] [cisplatin, reference compound] |  | hypersensitivity to crosslinking agents in FANCD2−/−cells | 13 | 42
